According to patent US9732080B2 (Vertex Pharmaceuticals Incorporated, priority 2006, dated 2017):

The compounds below were run against T1, ΔF508-CFTR (Homo sapiens, UniProt P13569, DEL508-508) (assay: Membrane potential optical assay, identification of correction compounds (ΔF508-CFTR correction)). Settings: PercentActivity; NIH3T3 mouse fibroblasts stably expressing ΔF508-CFTR; 16-24 hrs with compound; read-out: Binned Max Efficacy.
T1 construct: expressed in transfected cells
Type: cell-based
Excerpt: Membrane potential optical methods for assaying ΔF508-CFTR modulation properties of compounds.
The assay utilizes fluorescent voltage sensing dyes to measure changes in membrane potential using a fluorescent plate reader (e.g., FLIPR III, Molecular Devices, Inc.) as a readout for increase in functional ΔF508-CFTR in NIH 3T3 cells. The driving force for the response is the creation of a chloride ion gradient in conjunction with channel activation by a single liquid addition step after the cells have previously been treated with compounds and subsequently loaded with a voltage sensing dye.
To identify small molecules that correct the trafficking defect associated with ΔF508-CFTR; a single-addition HTS assay format was developed. Assay Plates containing cells are incubated for ˜2-4 hours in tissue culture incubator at 37° C., 5% CO2, 90% humidity. Cells are then ready for compound exposure after adhering to the bottom of the assay plates.
The cells were incubated in serum-free medium for 16-24 firs in tissue culture incubator at 37° C., 5% CO2, 90% humidity in the presence or absence (negative control) of test compound. The cells were subsequently rinsed 3× with Krebs Ringers solution and loaded with a voltage sensing redistribution dye. To activate ΔF508-CFTR, 10 μM forskolin and the CFTR potentiator, genistein (20 μM), were added along with Cl^−-free medium to each well. The addition of Cl^−-free medium promoted Cl^− efflux in response to ΔF508-CFTR activation and the resulting membrane depolarization was optically monitored using voltage sensor dyes.
Bath Solution #1: (in mM) NaCl 160, KCl 4.5, CaCl2 2, MgCl2 1, HEPES 10, pH 7.4 with NaOH.
Chloride-free bath solution: Chloride salts in Bath Solution #1 are substituted with gluconate salts.
NIH3T3 mouse fibroblasts stably expressing ΔF508-CFTR are used for optical measurements of membrane potential. The cells are maintained at 37° C. in 5% CO2 and 90% humidity in Dulbecco's modified Eagle's medium supplemented with 2 mM glutamine, 10% fetal bovine serum, 1×NEAA, β-ME, 1× pen/strep, and 25 mM HEPES in 175 cm^2 culture flasks. For all optical assays, the cells were seeded at ˜20,000/well in 384-well matrigel-coated plates and cultured for 2 hrs at 37° C. before culturing at 27° C. for 24 hrs. for the potentiator assay. For the correction assays, the cells are cultured at 27° C. or 37° C. with and without compounds for 16-24 hours.

T1 sequence (P13569 with tags, fused parts or gaps DEL508-508): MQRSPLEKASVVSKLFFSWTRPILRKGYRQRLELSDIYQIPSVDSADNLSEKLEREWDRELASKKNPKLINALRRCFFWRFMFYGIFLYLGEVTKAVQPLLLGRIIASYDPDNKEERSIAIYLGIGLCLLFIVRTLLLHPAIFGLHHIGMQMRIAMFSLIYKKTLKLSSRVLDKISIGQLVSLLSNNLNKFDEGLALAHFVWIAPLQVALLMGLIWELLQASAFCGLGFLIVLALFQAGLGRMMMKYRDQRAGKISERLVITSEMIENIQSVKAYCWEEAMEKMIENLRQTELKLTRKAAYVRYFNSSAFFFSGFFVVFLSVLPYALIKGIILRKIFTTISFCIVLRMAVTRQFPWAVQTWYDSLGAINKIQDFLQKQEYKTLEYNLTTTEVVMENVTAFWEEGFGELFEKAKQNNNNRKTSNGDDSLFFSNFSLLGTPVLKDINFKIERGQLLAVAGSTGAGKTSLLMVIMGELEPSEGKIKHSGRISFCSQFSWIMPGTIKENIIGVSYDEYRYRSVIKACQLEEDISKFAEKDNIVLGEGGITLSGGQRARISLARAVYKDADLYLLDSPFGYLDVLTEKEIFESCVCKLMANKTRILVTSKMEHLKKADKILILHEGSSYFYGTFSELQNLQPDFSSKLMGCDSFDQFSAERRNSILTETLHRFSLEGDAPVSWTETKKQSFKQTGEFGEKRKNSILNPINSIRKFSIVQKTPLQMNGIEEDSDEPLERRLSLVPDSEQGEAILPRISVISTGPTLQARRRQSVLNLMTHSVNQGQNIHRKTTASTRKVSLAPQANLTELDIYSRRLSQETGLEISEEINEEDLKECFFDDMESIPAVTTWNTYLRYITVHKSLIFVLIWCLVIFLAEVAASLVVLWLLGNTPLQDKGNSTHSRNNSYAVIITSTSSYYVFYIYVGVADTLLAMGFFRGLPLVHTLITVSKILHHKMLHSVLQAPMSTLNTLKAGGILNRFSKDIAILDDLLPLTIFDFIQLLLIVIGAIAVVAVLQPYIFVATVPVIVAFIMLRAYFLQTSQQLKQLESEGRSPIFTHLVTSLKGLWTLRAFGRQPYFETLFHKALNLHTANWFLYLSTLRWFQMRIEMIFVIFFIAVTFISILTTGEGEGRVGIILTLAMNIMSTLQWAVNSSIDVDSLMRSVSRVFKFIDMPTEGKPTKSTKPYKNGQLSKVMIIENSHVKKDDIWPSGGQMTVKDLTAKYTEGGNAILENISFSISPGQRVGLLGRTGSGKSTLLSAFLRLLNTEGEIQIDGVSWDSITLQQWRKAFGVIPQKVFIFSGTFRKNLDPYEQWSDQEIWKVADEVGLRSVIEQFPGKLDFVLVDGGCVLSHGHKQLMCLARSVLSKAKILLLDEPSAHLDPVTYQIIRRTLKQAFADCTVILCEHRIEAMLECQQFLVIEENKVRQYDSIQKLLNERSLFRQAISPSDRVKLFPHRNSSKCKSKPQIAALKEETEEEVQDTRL

`CC1(c2cc3cc(NC(=O)C4(c5ccc6c(c5)OC(F)(F)O6)CC4)ncc3[nH]2)CC1` [Compound 10, 1-(2,2-difluorobenzo[d][1,3]dioxol-5-yl)-N-(2-(1-methylcyclopropyl)-1H-pyrrolo[2,3-c]pyridin-5-yl)cyclopropanecarboxamide] and `CCc1cc2cc(NC(=O)C3(c4ccc5c(c4)OC(F)(F)O5)CC3)ncc2[nH]1` [Compound 9, 1-(2,2-difluorobenzo[d][1,3]dioxol-5-yl)-N-(2-ethyl-1H-pyrrolo[2,3-c]pyridin-5-yl)cyclopropanecarboxamide] cannot be ordered by Emax: greater than 100% for the first, greater than 100% for the second.

`CC(C)(C)c1cc2cc(NC(=O)C3(c4ccc5c(c4)OC(F)(F)O5)CC3)ncc2n1CCO` [Compound 15, N-(2-tert-butyl-1-(2-hydroxyethyl)-1H-pyrrolo[2,3-c]pyridin-5-yl)-1-(2,2-difiuorobenzo[d][1,3]dioxol-5-yl)cyclopropanecarboxamide] and `CC(C)(C)c1cc2cc(NC(=O)C3(c4ccc5c(c4)OC(F)(F)O5)CC3)ncc2[nH]1` [Compound 14, N-(2-tert-butyl-1H-pyrrolo[2,3-c]pyridin-5-yl)-1-(2,2-difluorobenzo[d][1,3]dioxol-5-yl)cyclopropanecarboxamide] cannot be ordered by Emax: greater than 100% for the first, greater than 100% for the second.

`COc1cccc(C2(C(=O)Nc3cnc4[nH]c(C(C)(C)C)cc4c3)CC2)c1` [Compound 5] and `COc1ccc(C2(C(=O)Nc3cnc4[nH]c(C(C)(C)C)cc4c3)CC2)cc1` [Compound 3, N-(2-tert-butyl-1H-pyrrolo[2,3-b]pyridin-5-yl)-1-(4-methoxyphenyl)cyclopropanecarboxamide] fall in the same range of Emax: 25 to 100% for the first, 25 to 100% for the second.

`O=C(Nc1cc2cc(C3CCC3)[nH]c2cn1)C1(c2ccc3c(c2)OC(F)(F)O3)CC1` [Compound 11, N-(2-cyclobutyl-1H-pyrrolo[2,3-c]pyridin-5-yl)-1-(2,2-difluorobenzo[d][1,3]dioxol-5-yl)cyclopropanecarboxamide] and `CC(C)(C)c1cc2nc(NC(=O)C3(c4ccc5c(c4)OC(F)(F)O5)CC3)ccc2[nH]1` [Compound 12, N-(2-tert-butyl-1H-pyrrolo[3,2-b]pyridin-5-yl)-1-(2,2-difluorobenzo[d][1,3]dioxol-5-yl)cyclopropanecarboxamide] cannot be ordered by Emax: greater than 100% for the first, greater than 100% for the second.

First: CC(C)(C)c1cc2cc(NC(=O)C3(c4ccc5c(c4)OCO5)CC3)ncc2[nH]1 [Compound 8]
Second: CC(C)(C)c1cc2cc(NC(=O)C3(c4ccc5c(c4)OCO5)CC3)cnc2[nH]1 [Compound 6]
The Emax of the first is lower: 25 to 100% for the first, greater than 100% for the second.

`COc1cccc(C2(C(=O)Nc3ccc4[nH]c(C(C)(C)C)cc4n3)CC2)c1` [Compound 4, N-(2-tert-butyl-1H-pyrrolo[3,2-b]pyridin-5-yl)-1-(3-methoxyphenyl)cyclopropanecarboxamide] and `COc1ccc(C2(C(=O)Nc3ccc4[nH]c(C(C)(C)C)cc4n3)CC2)cc1` [Compound 2, N-(2-tert-butyl-1H-pyrrolo[3,2-b]pyridin-5-yl)-1-(4-methoxyphenyl)cyclopropanecarboxamide] fall in the same range of Emax: 25 to 100% for the first, 25 to 100% for the second.

First: O=C(Nc1ccc2cc[nH]c2n1)C1(c2ccc3c(c2)OCO3)CC1 [Compound 1, 1-(benzo[d][1,3]dioxol-5-yl)-N-(1H-pyrrolo[2,3-b]pyridin-6-yl)cyclopropanecarboxamide]
Second: CC(C)(C)c1cc2nc(NC(=O)C3(c4ccc5c(c4)OCO5)CC3)ccc2[nH]1 [Compound 7]
The Emax of the first is higher: greater than 100% for the first, 25 to 100% for the second.

In the case of `CC(C)(C)c1cc2cc(NC(=O)C3(c4ccc5c(c4)OC(F)(F)O5)CC3)cnc2[nH]1` [Compound 13, N-(2-tert-butyl-1H-pyrrolo[2,3-b]pyridin-5-yl)-1-(2,2-difluorobenzo[d][1,3]dioxol-5-yl)cyclopropanecarboxamide], the Emax is reported as greater than 100%.
